Where no end group is shown, it is not given here.
How the values were obtained:
Type in all cases: cell-based
cell surface syndecan-1 = experiment: ELISA for cell surface syndecan-1 on NIH 3T3 cells; settings: for increase of cell surface syndecan-1: confluent NIH 3T3 cells, after 48 hr culture
Method: An in vitro cell culture system was used to explore the mechanism by which cell surface syndecans is induced. NIH 3T3 cells grown to confluence in serum-containing medium were exposed to potential inducers and then evaluated by ELISA for the amount of cell surface syndecan-1.
Syndecan-1 at the cell surface was determined on cells cultured in 96 well tissue culture plates by washing the cells once in Tris buffered saline (TBS) (10 mM Tris, 150 mM NaCl, pH 7.4), fixing 30 min in 2% HEPES-buffered paraformaldehyde, pH 7.4, rinsing three times in TBS and incubating the cells for 30 min in TBS, 0.1% BSA, 5% goat serum. Cells were incubated for 1 hr at room temperature with 5 μg/ml mAb 281-2 (specific for extracellular domain of syndecan-1 core protein) (M. Jalkanen, H. Nguyen, A. C. Rapraeger, N. Kurn, M. Bernfield, J. Cell Biol., 101:976 (1985)) or non-specific rat IgG2A (Zymed, San Francisco, Calif.). Cells were then rinsed 3×5 min with TBS, incubated with alkaline phosphatase conjugated goat anti-rat antibody (Caltag, San Francisco, Calif.) for 30 min, rinsed 3×5 min with TBS, and alkaline phosphatase activity determined by measuring the absorbance at 405 nm of a 1 mg/ml solution of p-nitrophenolphosphate (Sigma, St. Louis, Mo.) in 10 mM Tris, 100 mM NaCl, 5 mM MgCl pH 9.5. Linear rates of absorbance change over time were determined by an automated microplate reader (Molecular Devices, Menlo Park, Calif.). Cells were then rinsed 3× with TBS and cellular protein determined by solubilizing cells in individual wells with 20 μl of 0.1N NaOH followed by protein determination (BCA protein assay, Pierce, Rockford, Ill.).
These measurements correlated strongly over the range of syndecan-1 detected in this study (r=0.96), confirming that the ELISA assay provides a quantitative assessment of cell surface syndecan-1. […]

NIH 3T3 cells = experiment: Cell number, cell protein and morphology of treated NIH 3T3 cells
NIH-3T3 cells [1] = experiment: Uptake and binding of iodinated PR-39
Method: FIG. 4 is a graph showing uptake of PR-39 by NIH-3T3 cells.
PR-39 was iodinated using the Iodogen procedure (Pierce T). The influx and efflux kinetics were calculated, accessable compartments were evaluated, and total uptake measured in NIH-3T3 cells.

NIH-3T3 cells [2] = experiment: Cell permeability after PR-39 treatment (propium iodide); settings: for fluorescent cells per 20× field: confluent NIH-3T3, 60 minutes at 37° C., 50 μg/ml propium iodide
Method: Cell permeability after PR-39 treatment was then measured. NIH-3T3 cells were cultured to confluence on chamber slides. 0, 0.1, 0.5, 1, and 10 μM PR-39 was added to the culture medium and incubated 60 minutes at 37° C.; then 50 μg/ml propium iodide (FW 688) was added.

NIH-3T3 cells [3] = experiment: Effect on cell morphology (f-actin, rhodamine phalloidin); settings: 2 μM, 72 hr, confluent NIH-3T3
Method: To determine the effect on cell morphology, NIH-3T3 cells were cultured to confluence on coverslips in 24 well plates. 2 μM PR-39 was added the medium and cultured for 72 hr. 2% PFA and acetone were used to fix cells and cells were stained with f-actin with rhodamine phalloidin.

| Substance | increase of cell surface syndecan-1 (cell surface syndecan-1) | increase of cell number (NIH 3T3 cells) | fluorescent cells per 20× field (NIH-3T3 cells [2]) | further results |
| --- | --- | --- | --- | --- |
| PDGF-AB | approximately three to four-fold | about two-fold |  |  |
| RRRPRPPYLPRPRPPPFFPPRLPPRIPPGFPPRFPPRFP [PR-39] |  |  | 2 /20× field | induction of cell surface syndecan-1 by PR-39 (cell surface syndecan-1; NIH-3T3 cells, 43 hours): concentration dependent manner; uptake into cells (NIH-3T3 cells [1]; iodinated PR-39, NIH-3T3 cells): rapidly associates with and enters NIH-3T3 cells; saturation of uptake (NIH-3T3 cells [1]; radioactive PR-39, NIH-3T3 cells): reaches a saturation point; membrane permeability change (NIH-3T3 cells [2]; 0.1, 0.5, 1 and 10 μM, 60 minutes at 37° C.): no large perability changes; change in cell morphology (NIH-3T3 cells [3]): No change in cell morphology |
| FGF-2 | approximately three to four-fold | about two-fold |  |  |
| Triton™ |  |  | approximately 50 /20× field | fluorescent cells, percent (NIH-3T3 cells [2]; confluent NIH-3T3, 50 μg/ml propium iodide): 100% |
